Assay results published in ChEMBL document CHEMBL5338724, “METTL3 from Target Validation to the First Small-Molecule Inhibitors: A Medicinal Chemistry Journey” (J Med Chem, 2023).
Blank lines part the entries; values can stand above or below the molecule they belong to.

Legend:
[1] = tested on: MOLM-13; test: Antiproliferative activity against human MOLM-13 cells assessed as inhibition of cell proliferation incubated for 96 hrs by Cell Titer-Glo reagent assay; assay type: functional, cell-based; conditions: MOLM-13, 96 h
[2] = molecular target: T1, METTL3/METTL14 (Homo sapiens, UniProt Q86U44); test: Inhibition of METTL3/METTL14 (unknown origin) using biotinylated RNA (UCUGGACUAAA-biotin) and 3H-SAM as substrate preincubated for 5 mins followed by substrate addition and measured after 30 mins by scintillation counter analysis; assay type: protein-complex assay
[3] = tested on: MOLM-13; test: Antiproliferative activity against human MOLM-13 cells assessed as inhibition of cell proliferation incubated for 48 hrs by Cell Titer-Glo reagent assay; assay type: functional, cell-based; conditions: MOLM-13, 48 h
[4] = molecular target: N6-adenosine-methyltransferase catalytic subunit (Homo sapiens, UniProt Q86U44); test: Inhibition of METTL3 in human MOLM-13 cells assessed as decrease in cellular m6A mRNA level incubated for 24 hrs by NanoDrop spectrophotometer based LC-MS/MS analysis; assay type: cell-based
[5] = tested on: Caov-3 cell line; test: Antiproliferative activity against human Caov-3 cell line assessed as inhibition of cell proliferation incubated for 120 hrs by CellTiter-Glo assay; assay type: functional, cell-based; conditions: Caov-3, 120 h
[6] = tested on: Kasumi 1; test: Antiproliferative activity against human Kasumi 1 cells assessed as inhibition of cell proliferation incubated for 120 hrs by CellTiter-Glo assay; assay type: functional, cell-based; conditions: Kasumi 1, 120 h
[7] = molecular target: T1, METTL3/METTL14; test: Inhibition of METTL3/METTL14 (unknown origin); assay type: protein-complex assay
[8] = molecular target: T1, METTL3/METTL14; test: Inhibition of METTL3/METTL14 (unknown origin) using RNA 5'-GGACUGGACUGGACU-3' as substrate incubated for 2 hrs by LC-MS/MS analysis; assay type: protein-complex assay
[9] = tested on: MOLM-13; test: Antiproliferative activity against human MOLM-13 cells assessed as inhibition of cell proliferation and measured after 7 days by CellTiter-Glo assay; assay type: functional, cell-based; conditions: MOLM-13, 168 h
[10] = tested on: Caov-3 cell line; test: Antiproliferative activity against human Caov-3 cell line assessed as inhibition of cell proliferation and measured after 7 days by CellTiter-Glo assay; assay type: functional, cell-based; conditions: Caov-3, 168 h
[11] = molecular target: METTL3/METTL14 (Homo sapiens) (UniProt Q86U44+Q9HCE5); test: Inhibition of METTL3/METTL14 (unknown origin) at 60 uM relative to control; assay type: protein-complex assay
[12] = molecular target: T1, METTL3/METTL14; test: Competive inhibition of full length human METTL3/METTL14 expressed in Sf9 cells using single strand RNA 5'-AAGAACCGGACUAAGCU-3' and SAM as substrate incubated for 40 mins by HTRF assay
[13] = Selectivity ratio of IC50 for inhibition of METTL3/METTL14 (unknown origin) to IC50 for inhibition of FLT3 (unknown origin)
[14] = Selectivity ratio of IC50 for inhibition of METTL3/METTL14 (unknown origin) to IC50 for inhibition of PRMT5/MEP50 (unknown origin)
[15] = tested on: MOLM-13; test: Antiproliferative activity against human MOLM-13 cells assessed as decrease cell proliferation; assay type: functional, cell-based
[16] = molecular target: T1, METTL3/METTL14; test: Inhibition of METTL3/METTL14 (unknown origin) by bioluminescence assay; assay type: protein-complex assay
[17] = molecular target: Histone-lysine N-methyltransferase PRDM9 (Homo sapiens) (UniProt Q9NQV7); test: Inhibition of PRDM9 (unknown origin) at 10 uM relative to control
[18] = molecular target: Histone-lysine N-methyltransferase 2B (Homo sapiens) (UniProt Q9UMN6); test: Inhibition of MLL4 (unknown origin) at 10 uM relative to control
[19] = molecular target: T1, METTL3/METTL14; test: Inhibition of full-length His-tagged METTL3/full length FLAG-tagged METTL14 (unknown origin) expressed in baculovirus expression system using synthetic RNA 5'P-uacacucgaucuggacuaaagcugcuc-3' and SAM as substrate preincubated for 10 mins followed by substrate addition and measured after 60 mins by RF/MS analysis
[20] = tested on: HL-60; test: cells; conditions: Homo sapiens, HL-60, 168 h
[21] = tested on: OCI-AML2; test: cells; conditions: Homo sapiens, OCI-AML2, 168 h
[22] = tested on: NOMO-1; test: cells; conditions: Homo sapiens, NOMO-1, 168 h
[23] = tested on: OCI-AML-3; test: cells; conditions: Homo sapiens, OCI-AML-3, 168 h
[24] = tested on: EOL1; test: cells; conditions: Homo sapiens, EOL1, 168 h
[25] = tested on: Kasumi 1; test: cells; conditions: Homo sapiens, Kasumi 1, 168 h
[26] = tested on: Huh-7; test: cells; conditions: Homo sapiens, Huh-7, 72 h
[27] = tested on: MIA PaCa-2; test: cells; conditions: Homo sapiens, MIA PaCa-2, 72 h
[28] = tested on: THP-1; test: Antiproliferative activity against human THP-1 cells assessed as cell growth inhibition; assay type: functional
[29] = tested on: MOLM-14; test: Antiproliferative activity against human MOLM-14 cells assessed as cell growth inhibition; assay type: functional
[30] = tested on: HL-60; test: Antiproliferative activity against human HL-60 cells assessed as cell growth inhibition; assay type: functional
[31] = tested on: MOLM-13; test: Antiproliferative activity against human MOLM-13 cells assessed as cell growth inhibition; assay type: functional
[32] = molecular target: T1, METTL3/METTL14

SMILES: Nc1ncnc2c1c(-n1cccn1)cn2[C@H]1C[C@H](O)[C@@H](COc2ccc3ccc(N4CCC4)nc3c2)O1
IC50 [1]: < 10000 nM
IC50 [2]: < 10 nM
IC50 [3]: < 10000 nM
IC50 [4]: < 1000 nM

SMILES: Nc1ncnc2c1c(Br)cn2[C@@H]1C[C@H](c2ccc3cc(CN4CCC5(CCC5)C4)[nH]c3c2)[C@@H](O)[C@H]1O (single isomer, unassigned)
IC50 [5]: 250 nM
IC50 [6]: 950 nM

SMILES: Nc1ncnc2c1c(Cl)cn2[C@@H]1C[C@H](c2ccc3cc(CNCC45CC(F)(C4)C5)[nH]c3c2)[C@@H](O)[C@H]1O
IC50 [5]: 250 nM
IC50 [6]: 950 nM

SMILES: Cc1coc(-c2cn([C@@H]3O[C@H](COc4ccc5ccc(N6CCC6)nc5c4)[C@@H](O)[C@@H]3F)c3ncnc(N)c23)n1
IC50 [1]: < 10000 nM
IC50 [2]: < 10 nM
IC50 [3]: < 10000 nM

SMILES: O=C(O)[C@H]1O[C@@H](Oc2cc3oc(-c4ccc(O)cc4)cc(=O)c3c(O)c2O)[C@H](O)[C@@H](O)[C@@H]1O [SCUTELLARIN]
IC50 [8]: 19200 nM

SMILES: COc1cc(-c2cn(Cc3cn4cc(CNCC5CCC5)ccc4n3)nn2)c2cncn2c1
IC50 [5]: 103 nM
IC50 [6]: 316 nM

SMILES: Cn1ccc(-c2cn([C@@H]3O[C@H](C(=O)Nc4ccc5ccc(N6CCC6)nc5c4)[C@@H](O)[C@@H]3F)c3ncnc(N)c23)n1
IC50 [2]: < 10 nM
Ratio IC50 [13]: > 100
Ratio IC50 [14]: > 100

SMILES: COc1cc(-c2cn(Cc3cn4cc(CNCC56CC(C5)C6)ccc4n3)nn2)c2cncn2c1
IC50 [5]: 110 nM
IC50 [6]: 419 nM

SMILES: O=c1c(O)c(-c2ccc(O)c(O)c2)oc2cc(O)cc(O)c12 [QUERCETIN]
IC50 [26]: 100000 nM
IC50 [8]: 2730 nM
IC50 [27]: 73500 nM

Second part, led by results:

IC50 [7]: 6000 nM
SMILES: O=C(O)c1ccccc1OCCc1cn(C(c2ccccc2)c2ccccc2)c2ccc(-c3ccc(F)cc3)cc12

IC50 [9]: 657 nM
SMILES: O=C(NCc1cn2cc(CNCC34CC(F)(C3)C4)ccc2n1)c1cc(=O)n2ccccc2n1
IC50 [10]: 248 nM

inhibition [11]: 23.3%
SMILES: CC1=NN(c2ccc(C)c(C)c2)C(=O)/C1=N\Nc1cccc(-c2ccccc2)c1O

IC50 [7]: 8630 nM
SMILES: O=C(O)c1ccccc1OCCc1cn(C(c2ccccc2)c2ccccc2)c2ccc(-c3ccccc3)cc12

IC50 [12]: > 250000 nM
SMILES: Nc1ncnc2c1ncn2[C@@H]1O[C@H](C(=O)NCC2CCNCC2)[C@@H](O)[C@H]1O (single isomer, unassigned)

EC50 [15]: 26900 nM
IC50 [7]: 3130 nM
SMILES: O=C(O)c1ccccc1OCCc1cn(-c2ccc(-c3ccc(Cl)cc3)cc2)c2ccc(-c3ccc(F)cc3)cc12

IC50 [16]: 3650 nM
inhibition [17]: 30%
inhibition [18]: 29%
SMILES: CC1=NN(c2ccc(C)c(C)c2)C(=O)/C1=N\Nc1cccc(-c2cccc(C(=O)O)c2)c1O [ELTROMBOPAG]

IC50 [19]: < 6 nM
SMILES: Nc1ncnc2c1c(Br)cn2[C@@H]1C[C@H](c2ccc3cc(CNCC45CC(F)(C4)C5)[nH]c3c2)[C@@H](O)[C@H]1O
IC50 [5]: 250 nM
IC50 [6]: 950 nM

IC50 [20]: 10300 nM
IC50 [9]: 1040 nM
IC50 [21]: 1780 nM
IC50 [22]: 600 nM
IC50 [23]: 3200 nM
IC50 [24]: 1940 nM
IC50 [25]: 700 nM
SMILES: O=C(NCc1cn2cc(CNCC3CCCCC3)ccc2n1)c1cc(=O)n2ccccc2n1

IC50 [19]: 3.63 nM
SMILES: COc1cc(-c2cn(Cc3cn4cc(CNCC5CCC5)ccc4n3)nn2)c2cn[nH]c2c1

GI50 [28]: 21600 nM
GI50 [29]: 13100 nM
EC50 [15]: 14600 nM
GI50 [30]: 15500 nM
GI50 [31]: 14600 nM
IC50 [32]: 4920 nM
SMILES: O=C(O)c1ccccc1OCCc1cn(-c2ccc(-c3c(Cl)cccc3Cl)cc2)c2ccc(-c3ccc(F)cc3)cc12
